{"source": "patent US12023330B2", "about": "“Use of manzamines as antiproliferative agent” (priority 2020, dated 2024)", "key": {"C33A cells": {"tested_on": "C33A cells", "experiment": "CellTiter-Glo cell viability assay", "assay_type": "cell-based, human", "experimental": "(§1) Biological Effect of Marine Sponge Natural Product Manzamine A on Cervical Cancer Cell Growth. We determined the biological activity of manzamine A on cervical cancer cells C33A (HPV-negative), HeLa, SiHa, and CaSki (HPV16/18-positive) using a wide range of concentrations (0-40 μM) at different time points (24, 48 and 72 hours). The CellTiter-Glo cell viability assay determined the cell viability based on metabolically active cells producing ATP in the cell culture. […] Twenty thousand (2×10^4) cells were seeded in ninety-six well plates and treated with a wide range of 1 μM to 40 μM concentration of manzamine A for three time points (24, 48 and 72 h). The experiment was repeated at least three times in quadruplicates from different cell preparations with similar results. Percent viable cells were used to calculate IC50 values and are shown in the inset for all the cell lines at their respective time-points. The percent viability values represent standard error from the mean (mean±SE).\n(§2) Cell Culture. Human cervical cancer cell lines C33A, HeLa, SiHa, and CaSki were purchased from the American Type Culture Collection (ATCC, Manassas, VA). Cells were grown in Dulbecco's Modified Eagle Medium (DMEM) medium supplemented with 10% fetal bovine serum, 2 mM L-glutamine, 100 U/ml of penicillin-streptomycin, and maintained at 37° C. with 5% CO2 in a humidified incubator.\n(§3) Cell Viability Assay. Cell viability was measured by using Cell Titer-Glo Luminescent Cell Viability Assay Kit (Promega, Leiden, Netherlands) according to the manufacturer's instructions. Briefly, 2×10^4 cells were seeded in 96 well plates. Next day, cells were treated with different concentrations of MA (0-40 μM) for 24, 48 and 72 hours. Percent viability was calculated using the formula: percent (%) viability=100×(Treatment/Control). The IC50 value was calculated from the dose responsive sigmoid curve generated from % viability using GrpaphPad Prism 7 software."}, "CaSki cells": {"tested_on": "CaSki cells", "experiment": "CellTiter-Glo cell viability assay", "assay_type": "cell-based, human", "experimental": "as §1, §2, §3"}, "HeLa cells": {"tested_on": "HeLa cells", "experiment": "CellTiter-Glo cell viability assay", "assay_type": "cell-based, human", "experimental": "as §1, §2, §3"}, "[1]": {"tested_on": "p53, p21, cyclin D1, total Rb, phospho-Rb", "experiment": "Protein expression analysis of cell cycle regulatory proteins", "assay_type": "cell-based, human", "details": "2 and 4 μM, 48 h", "source_text": "Molecular Targets of Manzamine A (1). HeLa, SiHa and CaSki cell lines represent the most common form of cervical cancer infected by the HPV type 16 (SiHa and CaSki) and 18 (HeLa). Cervical cancer is primarily aggravated by the sustained expression of HPV-derived E6 and E7 oncogenes utilizing distinct mechanisms that affect cell-cycle checkpoints. For instance, E6 promotes p53 degradation, while E7 is associated with phosphorylation of retinoblastoma (Rb) proteins. See (22) Huh, K.; Zhou, X.; Hayakawa, H.; Cho, J. Y.; Libermann, T. A.; Jin, J.; Harper, J. W.; Munger, K. J. Virol. 2007, 81, 9737-9747 and Talis, A. L.; Huibregtse, J. M.; Howley, P. M. J. Biol. Chem. 1998, 273, 6439-6445. Both p53 and Rb are tumor suppressor genes and play a critical role in maintaining cell cycle regulation. Additionally, interaction of cyclin D1 with Rb protein and their expression levels correlate positively in association with tumorigenesis. Therefore, we sought to examine the molecular targets of manzamine A leading to anti-cancer activity in cervical cancer. […] Following the overnight attachment of 1×10^6 cells/well, the cells were treated with manzamine A (1) at 2 and 4 μM concentrations and incubated for 48 h. Cell lysates were prepared for protein analysis. […] However, detailed mechanistic studies of manzamine A determining anti-cancer effect are required to further substantiate these observations.\nProtein Expression Analysis. C33A, HeLa, SiHa and CaSki cells were seeded at a density of 1×10^6 cells/100 mm petri dish. The next day, the cells were treated with 2 μM or 4 μM concentrations of manzamine A (1) or with 10, 20, or 40 μM concentrations with apigenin (Sigma, MO) and incubated for 48 hours. At the given time-point, the cells were harvested by trypsinization, washed with PBS, and lysed using radioimmunoprecipitation assay (RIPA) buffer containing a cocktail of protease inhibitors (Sigma, MO) to extract protein. Following quantification by colorimetric assay (Bio-Rad), equal amount of protein was loaded on to SDS-polyacrylamide gel and transferred to polyvinylidene difluoride (PVDF) membrane, which was blocked in 5% non-fat dry milk in tris-buffered saline with tween-20 (TBST) and incubated with primary antibody against p53, p21, Cyclin D1, SIX1, GAPDH (Cell signaling) or CK2α (R&D Systems) at a 1:500 dilution. For total CK2a, Rb and pRb, the blocking and antibody dilutions were made in 3% bovine serum albumin (BSA). The membrane was washed with TBST and incubated with secondary IgG HRP conjugate at 1:2000 dilution. The specific band of the protein was visualized with chemiluminescence reagent exposed onto BioMax Film (Kodak) and ChemoDoc-it^2 imager (UVP)."}, "[2]": {"experiment": "Weight loss at high doses", "assay_type": "in vivo", "source_text": "The manzamine class of marine alkaloids is attractive in its potential for the development of novel therapeutics. This group has among the most extensively studied marine natural products to date, being found in more than 16 species of Indo-Pacific sponges distributed within distinct geographical regions. […] These molecules also show interesting activity as neuroprotective and anti-inflammatory agents, HIV/AIDS-associated opportunistic infections, and inhibition of cancer proliferative and metastatic activity. See Ridley, R. G.; Matile, H.; Jaquet, C.; Dorn, A.; Hofheinz, W.; Leupin, W.; Masciadri, R.; Theil, F. P.; Richter, W. F.; Girometta, M. A.; Guenzi, A.; Urwyler, H.; Gocke, E.; Potthast, J. M.; Csato, M.; Thomas, A.; Peters, W. Antimicrob. Agents Chemother. 1997, 41, 677-686. […] It is anticipated that short-term weight-loss would be less problematic or would not necessarily offset the therapeutic gain in cancer patients."}}, "data": [{"smiles": "O[C@]12C=C(c3nccc4c3[nH]c3ccccc34)[C@@H]3CCN(CCCC/C=C\\CC1)C[C@@]31C[C@@H]3/C=C\\CCCCN3[C@H]12", "note": "[manzamine A]", "values": [{"measurement": "IC50", "setting": "C33A cells; 48 hours", "result": 2.1, "unit": "µM"}, {"measurement": "IC50", "setting": "C33A cells; 72 hours", "result": 1.6, "unit": "µM"}, {"measurement": "IC50", "setting": "CaSki cells; 48 hours", "result": 19.9, "unit": "µM"}, {"measurement": "IC50", "setting": "CaSki cells; 72 hours", "result": 9.4, "unit": "µM"}, {"measurement": "IC50", "setting": "HeLa cells; 48 hours", "result": 4, "unit": "µM"}, {"measurement": "IC50", "setting": "HeLa cells; 72 hours", "result": 5.3, "unit": "µM"}, {"measurement": "p21 protein level", "setting": "[1]; C33A", "result": "not-detectable"}, {"measurement": "p53 protein level", "setting": "[1]; C33A", "result": "did not show any change"}, {"measurement": "p21 level", "setting": "[1]; HeLa", "result": "remains unchanged"}, {"measurement": "p53 level", "setting": "[1]; HeLa", "result": "marginal increase"}, {"measurement": "cyclin D1, total Rb, and phospho-Rb protein level", "setting": "[1]; SiHa and CaSki", "result": "inhibition"}, {"measurement": "p53 and p21 protein level", "setting": "[1]; SiHa and CaSki", "result": "increase"}, {"measurement": "body weight", "setting": "[2]", "result": "weight loss"}]}]}
